This experiment concerns Human peripheral blood mononuclear cells (PBMC). The experiment in a line: Cytokine induction in human cells (PBMC), cytokines by ELISA / multiplex bead assay. The experiment is classed as cell-based. The settings on record: for minimal effective concentration: human PBMC, 21-24 hours, lowest concentration giving cytokine level at least 2x negative control. The procedure:
Whole blood was obtained from healthy human donors and collected by venipuncture into vacutainer tubes or syringes containing EDTA. Human peripheral blood mononuclear cells (PBMC) were purified from the whole blood by density gradient centrifugation. Histopaque 1077 (15 mL, Sigma, St. Louis, Mo.) was transferred to 6×50 mL sterile polypropylene conical tubes. The Histopaque was overlayed with 15-25 mL of blood diluted 1:2 in Hank's Balanced Salts Solution (HBSS) (Gibco, Life Technologies, Grand Island, N.Y.). The tubes were then centrifuged at 1370 revolutions per minute (rpm) for 30 minutes at 20° C., with no brake (400×g, GH 3.8 A Rotor).
The interface (buffy coat) containing the PBMC was collected and placed in a new sterile 50 mL conical polypropylene centrifuge tube. The PBMC were mixed with an equal volume of HBSS (about 20 mL from the interface and about 20 mL of HBSS), and then centrifuged at 1090 rpm, 10 minutes, 20° C., with brake (270×g, GH 3.8 A Rotor). After completing centrifugation, the cells were resuspended in 2-3 mL ACK Red blood cell lysis buffer (ammonium chloride potassium solution, Gibco, Life Technologies) and incubated for 2-5 minutes at 20° C. Next, HBSS (40 mL) was added to the cells, and the sample was centrifuged at 270×g for 10 minutes at 20° C. The supernatant was decanted, and the cell pellet was resuspended in 5 mL AIM V Medium (Gibco, Life Technologies). Cell aggregates and debris were removed by filtering the cell solution through a BD Falcon 70 micron nylon cell strainer (BD Biosciences, San Jose, Calif.).
The number of viable cells was determined by counting with a Miltenyi FACS instrument (Miltenyi Biotec Inc., San Diego, Calif.) or by using a hemacytometer. For determining cell viability with a hemacytometer, the cells were diluted 1/10 in 0.4% trypan blue and HBSS (specifically, 50 microliter of trypan blue+40 microliter of HBSS+10 microliter of cell solution were added to a microfuge tube and mixed). Ten microliters of the diluted cells were then applied to the hemacytometer, and the number of viable PBMC were determined by microscopy.
The PBMC sample was then resuspended in 96-well plates at a concentration of 8×10^5 cells/well in 0.1 mL of AIM-V medium. Each compound was solubilized in dimethyl sulfoxide (DMSO) to create a 3 mM stock solution. The stock solution was then further diluted with AIM-V medium to prepare the serial dilutions. The diluted compound (100 microliters) was then transferred to the PBMCs to produce testing sets with final compound concentrations of either 30, 10, 3.3, 1.1, 0.37, 0.12, 0.04, 0.01 micromolar (testing set A); 100, 30, 10, 3.3, 1.1, 0.37, 0.12, 0.04, 0.01, 0.005 micromolar (testing set B); 100, 33.3, 11.1, 3.7, 1.2, 0.41 micromolar (testing set C); or 100, 50, 30, 10, 3.3, 1.1, 0.37, 0.12, 0.04 micromolar (testing set D). The plates also had both positive and negative controls. The negative control wells contained only AIM-V medium with no example compound. The positive control wells contained a control set of imiquimod serially diluted to concentrations of either 30, 10, 3.3, 1.1, 0.37, 0.12, 0.04, 0.01 micromolar (control set A); 100, 30, 10, 3.3, 1.1, 0.37, 0.12, 0.04, 0.01, 0.005 micromolar (control set B); 100, 33.3, 11.1, 3.7, 1.2, 0.41 micromolar (control set C); or 100, 50, 30, 10, 3.3, 1.1, 0.37, 0.12, 0.04 micromolar (control set D). The concentrations used in the control set were selected to match the concentrations used in the testing set. The plates were then cultured at 37° C./5% CO2 for 21-24 hours. Cell-free supernatants were harvested by centrifuging the 96-well plates at 2100 rpm, 23° C. for 10 minutes. Approximately 160 microliters of the supernatant was then stored in a NUNC 96-well plate, covered with the compression cap and stored at −80° C. until the cytokine analysis was done.
IFN-alpha cytokine levels (picograms/mL) were measured by ELISA (human IFN-alpha, pan specific, Mabtech, Cincinnati, Ohio). […]

[1] abbreviates: ELISA, read-out: MEC to Induce Cytokine: IFN-alpha.
Setting [2] is: multiplex bead assay, read-out: MEC to Induce Cytokine: IFN-gamma.
Setting [3] is: multiplex bead assay, read-out: MEC to Induce Cytokine: TNF-alpha.

Results on three compounds are retold here after US20220177471A1, “N-1 BRANCHED ALKYL SUBSTITUTED IMIDAZO[4,5-C]QUINOLINE COMPOUNDS, COMPOSITIONS, AND METHODS” (3M INNOVATIVE PROPERTIES COMPANY, priority 2019, published 2022).

Where two headings read alike, the source gives them in different places.

Turning to `CC(C)Cn1cnc2c(N)nc3ccccc3c21` [Comparative Example 1, 1-isobutylimidazo[4,5-c]quinolin-4-amine, reference compound], the minimal effective concentration worked out at 11.1 µM under setting [1], 11.1 µM under setting [2] and 11.1 µM under setting [3].

For `CC[C@@H](n1cnc2c(N)nc3ccccc3c21)C(C)(C)O` [Example 11, (3R)-3-(4-aminoimidazo[4,5-c]quinolin-1-yl)-2-methyl-pentan-2-ol], the minimal effective concentration is 1.1 µM under setting [1], 3.3 µM under setting [2] and 1.1 µM under setting [3].

In the case of `CCC[C@H](n1cnc2c(N)nc3ccccc3c21)C(C)(C)O` [Example 14, (3S)-3-(4-aminoimidazo[4,5-c]quinolin-1-yl)-2-methyl-hexan-2-ol], the “cytokine production (statement in words)” value (IFN-alpha, IFN-gamma, TNF-alpha) is “inactive toward cytokine production”. The minimal effective concentration runs as follows: under setting [1], greater than 30 µM; under setting [2], greater than 30 µM; under setting [3], greater than 30 µM.
